From ChEMBL document CHEMBL6078730, “Exploring the antiproliferative and proapoptotic activities of new pyridopyrimidine derivatives and their analogs” (Bioorg Med Chem, 2025) come the findings set out here.

SMILES strings stand for the structures. Values after ≈ are worked out from the molar mass of the structure shown. Active and inactive are the calls of the source. No cut-off for these calls is given here.

Series [1] deals with T47D. The series can be described thus: Antiproliferative activity against human T47D cells assessed as inhibition of cell proliferation incubated for 24 hrs by MTT assay. It is filed as functional, cell-based.
In series [2] the test system is T47D. Kind of series: Antiproliferative activity against human T47D cells assessed as reduction in cell growth inhibition at 10 uM incubated for 24 hrs by MTT assay relative to control. It is filed as functional. The following applies: read-out: GI.
In the next series the test system is NCI-H23. Kind of series: Antiproliferative activity against human NCI-H23 cells assessed as reduction in cell growth inhibition at 10 uM incubated for 24 hrs by MTT assay relative to control. Format: functional. Particulars: read-out: GI.
For the next series, the system named is MDA-MB-435. The series can be described thus: Antiproliferative activity against human MDA-MB-435 cells assessed as reduction in cell growth inhibition at 10 uM incubated for 24 hrs by MTT assay relative to control. It is filed as functional. Particulars: read-out: GI.
Series [3] can be described thus: Cytotoxicity against human MCF-10A cells assessed as reduction in cell viability at 10 uM incubated for 24 hrs by MTT assay. Format: toxicity, cell-based.
Series [4] can be described thus: Selectivity index, ratio of IC50 for human MCF-10A cells to IC50 for human T47D cells. It is filed as toxicity. The following applies: MCF-10A cells versus T47D cells, read-out: Ratio IC50.
In series [5] the test system is T47D. Kind of series: Induction of cell cycle arrest in human T47D cells assessed as increase in accumulation of cells at G2-M phase at IC50 concentration incubated for 48 hrs by […]PI staining based flow cytometry analysis (reference value: 17.28%). Format: functional.
In series [6] the test system is T47D. Kind of series: Induction of cell cycle arrest in human T47D cells assessed as decrease in accumulation of cells at G0-G1 phase at IC50 concentration incubated for 48 hrs by […]PI staining based flow cytometry analysis (reference value: 52.84%). It is filed as functional. More on the design: scale not given: the % may be the effect or the level left.

Series [7] deals with T47D. Kind of series: Induction of cell cycle arrest in human T47D cells assessed as decrease in accumulation of cells at S phase at IC50 concentration incubated for 48 hrs by […]PI staining based flow cytometry analysis (reference value: 29.88%). Details: scale not given: the % may be the effect or the level left. Format: functional.
Series [8] concerns T47D. The series can be described thus: Induction of apoptosis in human T47D cells assessed as decrease in viable cells at IC50 concentration incubated for 48 hrs by AnnexinV-FITC/PI staining based flow cytometry relative to control. It is filed as functional, cell-based.
In series [9] the test system is T47D. Kind of series: Induction of apoptosis in human T47D cells assessed as increase in early apoptotic cells at IC50 concentration incubated for 48 hrs by AnnexinV-FITC/PI staining based flow cytometry (reference value: 0.64%). Format: functional.
Series [10] concerns T47D. The series can be described thus: Induction of apoptosis in human T47D cells assessed as increase in late apoptotic cells at IC50 concentration incubated for 48 hrs by AnnexinV-FITC/PI staining based flow cytometry (reference value: 0.13%). Format: functional.
The subject of series [11] is T47D. The series can be described thus: Induction of apoptosis in human T47D cells assessed as increase in necrotic cells at IC50 concentration incubated for 48 hrs by AnnexinV-FITC/PI staining based flow cytometry (reference value: 1.42%). It is filed as functional.
Series [12] has as its system T47D. Kind of series: Induction of apoptosis in human T47D cells assessed as fold increase in ratio of apoptotic cells incubated for 48 hrs by AnnexinV-FITC/PI staining based flow cytometry. It is filed as functional.
Series [13] concerns T47D. Kind of series: Induction of apoptosis in human T47D cells assessed as increase in p53 expression at IC50 concentration incubated for 48 hrs by Western blotting analysis. Format: functional, cell-based.
Series [14] concerns T47D. Kind of series: Induction of apoptosis in human T47D cells assessed as increase in Bax expression at IC50 concentration incubated for 48 hrs by Western blotting analysis. Format: functional, cell-based.
Series [15] deals with T47D. Kind of series: Induction of apoptosis in human T47D cells assessed as inhibition in Bcl2 expression at IC50 concentration incubated for 48 hrs by Western blotting analysis. Format: functional, cell-based.
For series [16], the system named is T47D. Kind of series: Induction of apoptosis in human T47D cells assessed as increase in Bax/Bcl-2 ratio at IC50 concentration incubated for 48 hrs by Western blotting analysis. It is filed as functional, cell-based.
Series [17] in a line: Upregulation of Bax expression in human T47D cells assessed as fold change at IC50 concentration incubated for 48 hrs by Western blotting analysis. It is filed as functional.
A short description of series [18]: Downregulation of Bcl-2 expression in human T47D cells assessed as fold change at IC50 concentration incubated for 48 hrs by Western blotting analysis. It is filed as functional.
Series [19] deals with Phosphatidylinositol 4,5-bisphosphate 3-kinase catalytic subunit alpha isoform (Homo sapiens, UniProt P42336). Kind of series: Inhibition of PI3K alpha (unknown origin) using PIP2 as substrate preincubated for 10 mins followed by substrate addition and measured after 1 hrs by colorimetric analysis.
Sequence of Phosphatidylinositol 4,5-bisphosphate 3-kinase catalytic subunit alpha isoform (P42336 whole entry, canonical isoform): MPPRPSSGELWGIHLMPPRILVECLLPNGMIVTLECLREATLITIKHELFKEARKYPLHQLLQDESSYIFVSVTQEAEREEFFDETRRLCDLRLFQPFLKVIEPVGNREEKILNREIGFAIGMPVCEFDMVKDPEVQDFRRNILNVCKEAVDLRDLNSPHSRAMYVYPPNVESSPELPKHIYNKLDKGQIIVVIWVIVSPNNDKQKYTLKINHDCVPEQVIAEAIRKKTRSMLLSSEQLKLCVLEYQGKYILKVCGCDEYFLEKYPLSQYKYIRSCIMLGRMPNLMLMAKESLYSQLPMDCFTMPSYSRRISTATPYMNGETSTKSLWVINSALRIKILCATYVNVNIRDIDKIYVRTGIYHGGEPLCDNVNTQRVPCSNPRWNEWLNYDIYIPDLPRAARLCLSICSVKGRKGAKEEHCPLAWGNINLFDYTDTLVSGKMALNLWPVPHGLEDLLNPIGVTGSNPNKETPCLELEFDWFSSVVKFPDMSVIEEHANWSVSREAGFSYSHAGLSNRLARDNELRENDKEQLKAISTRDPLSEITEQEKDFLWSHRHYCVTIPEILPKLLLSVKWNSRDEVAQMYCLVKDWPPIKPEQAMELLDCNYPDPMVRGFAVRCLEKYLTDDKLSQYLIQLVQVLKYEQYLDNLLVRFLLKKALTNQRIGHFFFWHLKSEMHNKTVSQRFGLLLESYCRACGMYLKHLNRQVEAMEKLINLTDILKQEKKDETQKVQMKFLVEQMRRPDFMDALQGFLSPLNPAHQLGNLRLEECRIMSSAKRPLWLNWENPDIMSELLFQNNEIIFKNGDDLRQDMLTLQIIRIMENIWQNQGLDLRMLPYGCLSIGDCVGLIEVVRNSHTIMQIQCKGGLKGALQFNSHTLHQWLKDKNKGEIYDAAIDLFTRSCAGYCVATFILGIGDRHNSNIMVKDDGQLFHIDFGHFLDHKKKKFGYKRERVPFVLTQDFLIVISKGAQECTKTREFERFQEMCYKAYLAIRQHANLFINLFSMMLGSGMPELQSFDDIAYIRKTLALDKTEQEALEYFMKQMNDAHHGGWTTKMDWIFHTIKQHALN
For series [20], the target named is Phosphatidylinositol 4,5-bisphosphate 3-kinase catalytic subunit beta isoform (Homo sapiens, UniProt P42338). Kind of series: Inhibition of PI3K beta (unknown origin) using PIP2 as substrate preincubated for 10 mins followed by substrate addition and measured after 1 hrs by colorimetric analysis.
Sequence of Phosphatidylinositol 4,5-bisphosphate 3-kinase catalytic subunit beta isoform (P42338 whole entry, canonical isoform): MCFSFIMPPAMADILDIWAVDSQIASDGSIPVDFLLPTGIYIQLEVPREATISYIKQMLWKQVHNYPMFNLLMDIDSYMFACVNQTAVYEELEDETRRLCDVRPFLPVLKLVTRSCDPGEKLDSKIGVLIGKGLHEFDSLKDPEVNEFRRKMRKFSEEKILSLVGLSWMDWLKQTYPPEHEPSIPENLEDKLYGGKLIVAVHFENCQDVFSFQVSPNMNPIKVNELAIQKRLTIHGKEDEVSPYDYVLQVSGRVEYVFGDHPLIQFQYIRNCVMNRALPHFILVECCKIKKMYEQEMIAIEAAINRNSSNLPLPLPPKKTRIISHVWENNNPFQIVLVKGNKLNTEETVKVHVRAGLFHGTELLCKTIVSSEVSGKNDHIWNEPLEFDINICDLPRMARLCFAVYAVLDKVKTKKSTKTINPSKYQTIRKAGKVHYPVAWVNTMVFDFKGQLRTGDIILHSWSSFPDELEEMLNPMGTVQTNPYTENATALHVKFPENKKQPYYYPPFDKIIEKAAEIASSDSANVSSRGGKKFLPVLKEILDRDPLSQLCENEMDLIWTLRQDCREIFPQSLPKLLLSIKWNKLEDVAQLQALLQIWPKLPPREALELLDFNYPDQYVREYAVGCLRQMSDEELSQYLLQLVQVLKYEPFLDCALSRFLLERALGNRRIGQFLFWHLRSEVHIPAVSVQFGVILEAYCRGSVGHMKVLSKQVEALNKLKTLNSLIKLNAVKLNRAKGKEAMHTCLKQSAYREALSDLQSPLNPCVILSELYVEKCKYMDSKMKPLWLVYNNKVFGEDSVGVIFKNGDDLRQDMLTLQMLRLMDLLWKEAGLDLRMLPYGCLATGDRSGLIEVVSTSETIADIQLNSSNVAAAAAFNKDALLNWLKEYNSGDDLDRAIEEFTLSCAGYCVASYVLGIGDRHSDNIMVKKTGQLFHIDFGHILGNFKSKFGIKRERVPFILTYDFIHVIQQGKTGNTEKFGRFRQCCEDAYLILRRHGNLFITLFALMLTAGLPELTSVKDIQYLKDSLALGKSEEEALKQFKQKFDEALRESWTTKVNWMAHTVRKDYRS
Series [21] has as its target T1, Phosphatidylinositol 4,5-bisphosphate 3-kinase catalytic subunit delta isoform (Homo sapiens, UniProt O00329).
T1 sequence (O00329 whole entry): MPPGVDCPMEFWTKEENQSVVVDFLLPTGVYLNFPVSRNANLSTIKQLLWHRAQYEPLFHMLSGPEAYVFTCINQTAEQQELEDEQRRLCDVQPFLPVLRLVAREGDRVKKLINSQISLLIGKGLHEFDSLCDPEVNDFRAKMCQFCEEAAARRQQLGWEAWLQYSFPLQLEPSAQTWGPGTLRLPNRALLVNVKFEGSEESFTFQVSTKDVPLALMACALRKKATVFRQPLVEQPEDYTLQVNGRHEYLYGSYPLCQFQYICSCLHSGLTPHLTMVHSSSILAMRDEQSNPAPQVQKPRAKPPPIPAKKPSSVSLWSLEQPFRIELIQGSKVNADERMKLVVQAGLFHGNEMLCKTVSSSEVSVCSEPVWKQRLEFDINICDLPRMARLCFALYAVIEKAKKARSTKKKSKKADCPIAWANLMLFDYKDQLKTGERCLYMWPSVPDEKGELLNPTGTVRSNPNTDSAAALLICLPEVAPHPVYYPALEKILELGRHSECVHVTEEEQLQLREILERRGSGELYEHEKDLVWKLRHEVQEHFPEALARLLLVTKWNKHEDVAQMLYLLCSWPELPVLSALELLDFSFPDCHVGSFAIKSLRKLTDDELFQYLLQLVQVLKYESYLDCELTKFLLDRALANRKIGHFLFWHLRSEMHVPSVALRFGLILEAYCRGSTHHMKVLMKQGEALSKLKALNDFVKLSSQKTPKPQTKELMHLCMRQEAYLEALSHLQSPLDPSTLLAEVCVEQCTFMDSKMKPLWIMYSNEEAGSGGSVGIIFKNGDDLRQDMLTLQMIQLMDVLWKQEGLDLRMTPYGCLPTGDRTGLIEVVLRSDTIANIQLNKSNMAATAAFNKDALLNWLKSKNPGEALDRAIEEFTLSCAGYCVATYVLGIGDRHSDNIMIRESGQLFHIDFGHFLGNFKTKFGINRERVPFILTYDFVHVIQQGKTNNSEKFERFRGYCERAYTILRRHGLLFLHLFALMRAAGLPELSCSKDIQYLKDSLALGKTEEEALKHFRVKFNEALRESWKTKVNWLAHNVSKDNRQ
Kind of series: Inhibition of PI3K delta (unknown origin) using PIP2 as substrate preincubated for 10 mins followed by substrate addition and measured after 1 hrs by colorimetric analysis.

Series [22] addresses Phosphatidylinositol 4,5-bisphosphate 3-kinase catalytic subunit gamma isoform (Homo sapiens, UniProt P48736). Kind of series: Inhibition of PI3K gamma (unknown origin) using PIP2 as substrate preincubated for 10 mins followed by substrate addition and measured after 1 hrs by colorimetric analysis.

Sequence of Phosphatidylinositol 4,5-bisphosphate 3-kinase catalytic subunit gamma isoform (P48736 whole entry, canonical isoform): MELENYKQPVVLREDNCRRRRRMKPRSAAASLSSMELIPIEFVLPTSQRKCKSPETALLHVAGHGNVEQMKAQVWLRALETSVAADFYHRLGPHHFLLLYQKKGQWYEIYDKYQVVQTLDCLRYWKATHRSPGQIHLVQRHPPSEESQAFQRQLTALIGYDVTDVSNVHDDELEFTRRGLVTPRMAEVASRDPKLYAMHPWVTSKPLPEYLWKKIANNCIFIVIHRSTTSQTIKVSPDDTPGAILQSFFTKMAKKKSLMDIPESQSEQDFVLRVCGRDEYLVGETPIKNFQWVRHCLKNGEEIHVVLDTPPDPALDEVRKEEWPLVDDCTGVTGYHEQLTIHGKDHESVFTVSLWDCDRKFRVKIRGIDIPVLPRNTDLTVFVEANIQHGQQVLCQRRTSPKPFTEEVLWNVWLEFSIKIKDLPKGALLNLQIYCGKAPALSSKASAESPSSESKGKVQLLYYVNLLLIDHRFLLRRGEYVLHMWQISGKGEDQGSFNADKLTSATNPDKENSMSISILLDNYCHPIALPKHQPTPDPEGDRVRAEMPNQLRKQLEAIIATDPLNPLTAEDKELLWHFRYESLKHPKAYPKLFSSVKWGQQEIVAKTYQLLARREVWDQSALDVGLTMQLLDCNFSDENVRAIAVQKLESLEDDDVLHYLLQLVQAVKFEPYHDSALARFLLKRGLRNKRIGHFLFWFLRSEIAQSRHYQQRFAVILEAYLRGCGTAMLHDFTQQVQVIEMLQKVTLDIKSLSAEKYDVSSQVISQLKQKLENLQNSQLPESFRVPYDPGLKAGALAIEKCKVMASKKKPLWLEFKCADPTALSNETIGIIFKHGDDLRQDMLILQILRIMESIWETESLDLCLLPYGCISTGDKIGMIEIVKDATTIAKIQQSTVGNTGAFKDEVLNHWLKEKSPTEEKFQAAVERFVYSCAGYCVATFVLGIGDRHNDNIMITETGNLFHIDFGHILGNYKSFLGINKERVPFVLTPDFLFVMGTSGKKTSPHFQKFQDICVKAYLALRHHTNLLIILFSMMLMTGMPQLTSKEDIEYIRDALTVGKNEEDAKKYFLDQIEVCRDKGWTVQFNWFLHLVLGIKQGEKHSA

For `O=c1[nH]c(=S)[nH]c2nc(-c3ccccc3)ccc12`, the IC50 in the series with T47D [1] came out at 16.1 µg/mL (≈ 63 µM). For the same compound, the inhibition of growth at 10 µM in the series with T47D [2] is 50%.

Consider `O=c1[nH]c(=S)[nH]c2nc(-c3ccc(Br)cc3)ccc12`, for which the IC50 in the series with T47D [1] was determined as 9.62 µg/mL (≈ 28.8 µM). The inhibition of growth at 10 µM with T47D [2] came to 81%.

On to `Cc1ccc(C(=O)C2=CNC(=O)NC2c2ccc(O)cc2)cc1` (stereo not given), for which the inhibition of growth at 10 µM in the series on NCI-H23 worked out at 114%.

On to `O=C(C1=CNC(=S)NC1c1ccc(F)cc1)c1ccccc1` (stereo not given), for which the inhibition of growth at 10 µM with MDA-MB-435 was found to be 63%.

Turning to `CS(=O)(=O)N1CCN(Cc2cc3nc(-c4cccc5[nH]ncc45)nc(N4CCOCC4)c3s2)CC1` [PICTILISIB], in the series with T47D [1], the IC50 stood at 2.56 µg/mL (≈ 4.98 µM).

Take `O=c1[nH]c(=S)[nH]c2nc(-c3ccc(F)cc3)ccc12`: the IC50 in the series with T47D [1] turned out to be 6.09 µg/mL (≈ 22.3 µM). In addition, the inhibition of growth at 10 µM in the series on T47D [2] is 81%.

For the compound `O=c1[nH]c(=S)[nH]c2nc(-c3ccc(Cl)cc3)ccc12`, the 50% inhibitory concentration (IC50) was 1.46 µg/mL (≈ 5.04 µM) in the series on T47D [1]; 0.632 µM in [19]; 7.69 µM in [20]; 40.9 µM in series [21]; 2.12 µM in series [22]. In addition, in the series on T47D [2], the inhibition of growth at 10 µM was found to be 81%. For the same compound, in [3], the half-inhibitory concentration (IC50) at 24 h was found to be 422 µg/mL (≈ 1460 µM). Besides, the selectivity ratio in [4] was determined as 289. For the same compound, the Activity is reported as 28.02% in the series with T47D [5]; 45.11% in the series with T47D [6]; 26.87% in the series on T47D [7]; 18.83% in the series with T47D [9]; 11.51% in the series on T47D [10]; 6.88% in the series on T47D [11]. Also, the outcome in the series on T47D [8], in the series with T47D [13], with T47D [14], in the series with T47D [15] and in the series with T47D [16] was Active. In addition, the “fold change (FC)” value with T47D [12] was about 37; in series [17], 2.38; in [18] it was 0.69.

`O=c1[nH]c(=S)[nH]c2nc(-c3ccc([N+](=O)[O-])cc3)ccc12`: the IC50 in the series with T47D [1] is 22.1 µg/mL (≈ 73.7 µM). Also, in the series with T47D [2], the inhibition of growth at 10 µM stood at 81%.

Turning to `Cc1ccc(C(=O)C2=CNC(=S)NC2c2ccc(O)cc2)cc1` (stereo not given), the inhibition of growth at 10 µM with MDA-MB-435 worked out at 184%.

For `O=C(C1=CNC(=S)NC1c1ccc(F)cc1)c1ccc(F)cc1` (stereo not given), the inhibition of growth at 10 µM in the series on MDA-MB-435 came to 63%.

As for `Cc1ccc(-c2ccc3c(=O)[nH]c(=S)[nH]c3n2)cc1`, in the series on T47D [1], the IC50 stood at 18.4 µg/mL (≈ 68.4 µM). Moreover, the inhibition of growth at 10 µM in the series on T47D [2] came out at 81%.

For the compound `COc1ccc(-c2ccc3c(=O)[nH]c(=S)[nH]c3n2)cc1`, the half-maximal inhibitory concentration (IC50) in the series with T47D [1] was 52.7 µg/mL (≈ 185 µM). Also, the inhibition of growth at 10 µM in the series with T47D [2] was determined as 81%.

Consider `O=C(C1=CNC(=S)NC1c1ccc(F)cc1)c1ccc(Cl)cc1` (stereo not given), for which, in the series with MDA-MB-435, the inhibition of growth at 10 µM amounted to 63%.
